In ChEMBL document CHEMBL4311992, “Discovery of 3-(((9H-purin-6-yl)amino)methyl)-4,6-dimethylpyridin-2(1H)-one derivatives as novel tubulin polymerization inhibitors for treatment of cancer” (Eur J Med Chem, 2019):
Calls of active or inactive are those of the source. The calls are words filed in the database; no cut-off is given here.

Legend:
[1] = target: Serine/threonine-protein kinase tousled-like 1 (Homo sapiens) (UniProt Q9UKI8); experiment: Inhibition of recombinant full-length human TLK1 assessed as residual activity at 10 uM using casein as substrate measured after 40 mins in presence of [gamma33P]ATP by scintillation counting method
Serine/threonine-protein kinase tousled-like 1 (Homo sapiens), sequence (Q9UKI8 whole entry): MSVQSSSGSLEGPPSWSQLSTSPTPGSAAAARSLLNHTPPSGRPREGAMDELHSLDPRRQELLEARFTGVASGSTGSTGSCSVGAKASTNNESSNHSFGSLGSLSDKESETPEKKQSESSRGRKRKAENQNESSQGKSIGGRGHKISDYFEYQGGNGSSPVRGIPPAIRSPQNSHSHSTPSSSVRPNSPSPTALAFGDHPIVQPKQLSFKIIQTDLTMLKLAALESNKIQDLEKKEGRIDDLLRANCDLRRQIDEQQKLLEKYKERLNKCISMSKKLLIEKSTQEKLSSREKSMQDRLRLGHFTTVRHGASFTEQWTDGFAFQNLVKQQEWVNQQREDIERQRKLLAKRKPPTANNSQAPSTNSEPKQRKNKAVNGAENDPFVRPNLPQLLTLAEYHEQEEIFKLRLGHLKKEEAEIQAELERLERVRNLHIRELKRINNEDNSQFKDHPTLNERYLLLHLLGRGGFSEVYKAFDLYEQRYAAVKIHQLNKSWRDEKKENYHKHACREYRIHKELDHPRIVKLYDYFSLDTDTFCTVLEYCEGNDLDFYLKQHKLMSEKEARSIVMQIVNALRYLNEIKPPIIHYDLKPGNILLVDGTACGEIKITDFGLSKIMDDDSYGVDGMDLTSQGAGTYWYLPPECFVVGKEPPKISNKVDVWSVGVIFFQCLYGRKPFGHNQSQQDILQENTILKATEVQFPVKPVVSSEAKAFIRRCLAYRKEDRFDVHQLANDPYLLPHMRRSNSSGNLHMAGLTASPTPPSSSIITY

SW-620 [2] = experiment: Induction of apoptosis in human SW620 cells assessed as late apoptotic cells at 50 nM measured after 48 hrs by Annexin V-FITC/propidium iodide staining-based flow cytometry (reference value: 1.8%); assay type: functional
[3] = target: Transient receptor potential cation channel subfamily M member 7 (Homo sapiens) (UniProt Q96QT4); experiment: Inhibition of recombinant human CHAK1 (1180 to end residues) assessed as residual activity at 10 uM using myelin basic protein as substrate measured after 40 mins in presence of [gamma33P]ATP by scintillation counting method
[4] = target: G protein-coupled receptor kinase 3 (Homo sapiens) (UniProt P35626); experiment: Inhibition of recombinant full-length human GRK5 assessed as residual activity at 10 uM using casein as substrate measured after 40 mins in presence of [gamma33P]ATP by scintillation counting method
G protein-coupled receptor kinase 3 (Homo sapiens), sequence (P35626 whole entry): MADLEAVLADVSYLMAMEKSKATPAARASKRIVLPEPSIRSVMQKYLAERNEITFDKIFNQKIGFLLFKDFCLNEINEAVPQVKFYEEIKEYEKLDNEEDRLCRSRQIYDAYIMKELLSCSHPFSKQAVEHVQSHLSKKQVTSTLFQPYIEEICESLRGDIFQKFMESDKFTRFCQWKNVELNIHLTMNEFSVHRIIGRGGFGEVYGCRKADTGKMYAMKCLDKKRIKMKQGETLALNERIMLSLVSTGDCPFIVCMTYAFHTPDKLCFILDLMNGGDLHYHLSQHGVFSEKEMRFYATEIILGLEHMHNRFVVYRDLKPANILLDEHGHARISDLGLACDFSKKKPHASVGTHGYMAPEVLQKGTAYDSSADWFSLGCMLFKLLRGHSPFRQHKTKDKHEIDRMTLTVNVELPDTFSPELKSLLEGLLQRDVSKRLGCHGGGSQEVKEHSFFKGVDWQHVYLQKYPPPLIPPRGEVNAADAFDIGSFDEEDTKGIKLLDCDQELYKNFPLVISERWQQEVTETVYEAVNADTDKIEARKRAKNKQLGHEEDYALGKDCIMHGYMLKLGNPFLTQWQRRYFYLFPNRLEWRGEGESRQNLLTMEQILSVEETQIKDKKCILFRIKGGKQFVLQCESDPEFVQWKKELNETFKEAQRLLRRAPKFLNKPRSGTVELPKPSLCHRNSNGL

[5] = target: Mitogen-activated protein kinase kinase kinase 3 (Homo sapiens) (UniProt Q99759); experiment: Inhibition of recombinant full-length human MEKK3 assessed as residual activity at 10 uM using myelin basic protein as substrate measured after 40 mins in presence of [gamma33P]ATP by scintillation counting method
[6] = target: Mitogen-activated protein kinase 11 (Homo sapiens) (UniProt Q15759); experiment: Inhibition of recombinant full-length human SAPK2b assessed as residual activity at 10 uM using myelin basic protein as substrate measured after 40 mins in presence of [gamma33P]ATP by scintillation counting method
[7] = target: Serine/threonine-protein kinase ULK2 (Homo sapiens) (UniProt Q8IYT8); experiment: Inhibition of human ULK2 (1 to 306 residues) using casein as substrate measured after 40 mins in presence of [gamma33P]ATP by scintillation counting method; design: scale not given: the % may be the effect or the level left
Serine/threonine-protein kinase ULK2 (Homo sapiens), sequence (Q8IYT8 whole entry, the tested form may be a part): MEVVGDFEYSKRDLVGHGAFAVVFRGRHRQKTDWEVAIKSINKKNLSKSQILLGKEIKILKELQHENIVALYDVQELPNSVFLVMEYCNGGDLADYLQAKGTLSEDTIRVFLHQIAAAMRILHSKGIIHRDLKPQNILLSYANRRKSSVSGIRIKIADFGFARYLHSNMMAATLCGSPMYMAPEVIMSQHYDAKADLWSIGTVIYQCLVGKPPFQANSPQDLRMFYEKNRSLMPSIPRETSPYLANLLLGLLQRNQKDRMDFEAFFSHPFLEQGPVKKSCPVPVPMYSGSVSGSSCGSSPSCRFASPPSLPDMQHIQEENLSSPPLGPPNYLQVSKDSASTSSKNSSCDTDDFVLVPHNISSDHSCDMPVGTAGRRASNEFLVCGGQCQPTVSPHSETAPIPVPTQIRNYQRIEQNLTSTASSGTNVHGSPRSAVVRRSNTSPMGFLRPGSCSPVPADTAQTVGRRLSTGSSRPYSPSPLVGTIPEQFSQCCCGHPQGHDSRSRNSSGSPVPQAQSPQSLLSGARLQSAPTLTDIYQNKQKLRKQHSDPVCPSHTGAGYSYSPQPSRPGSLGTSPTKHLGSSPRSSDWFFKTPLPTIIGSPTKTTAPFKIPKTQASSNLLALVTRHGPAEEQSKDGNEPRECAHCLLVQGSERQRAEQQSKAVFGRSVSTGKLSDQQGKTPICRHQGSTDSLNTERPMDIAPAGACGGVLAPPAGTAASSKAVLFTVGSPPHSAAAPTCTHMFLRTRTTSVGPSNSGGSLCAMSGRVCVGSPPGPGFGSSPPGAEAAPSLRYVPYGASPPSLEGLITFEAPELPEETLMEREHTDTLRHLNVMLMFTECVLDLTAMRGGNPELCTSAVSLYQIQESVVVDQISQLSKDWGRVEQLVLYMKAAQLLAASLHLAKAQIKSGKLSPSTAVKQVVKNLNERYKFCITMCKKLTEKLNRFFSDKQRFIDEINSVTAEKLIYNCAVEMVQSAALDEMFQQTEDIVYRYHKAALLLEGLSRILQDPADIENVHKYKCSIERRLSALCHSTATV

[8] = target: Serine/threonine-protein kinase Nek11 (Homo sapiens) (UniProt Q8NG66); experiment: Inhibition of recombinant full-length human NEK11 assessed as residual activity at 10 uM using myelin basic protein as substrate measured after 40 mins in presence of [gamma33P]ATP by scintillation counting method
[9] = target: Phosphatidylinositol 4-phosphate 5-kinase type-1 alpha (Homo sapiens) (UniProt Q99755); experiment: Inhibition of recombinant full-length human PIP5K1alpha assessed as residual activity at 10 uM using phosphatidylinositol 4-phosphate as substrate measured after 40 mins by HTRF assay
Phosphatidylinositol 4-phosphate 5-kinase type-1 alpha (Homo sapiens), sequence (Q99755 whole entry): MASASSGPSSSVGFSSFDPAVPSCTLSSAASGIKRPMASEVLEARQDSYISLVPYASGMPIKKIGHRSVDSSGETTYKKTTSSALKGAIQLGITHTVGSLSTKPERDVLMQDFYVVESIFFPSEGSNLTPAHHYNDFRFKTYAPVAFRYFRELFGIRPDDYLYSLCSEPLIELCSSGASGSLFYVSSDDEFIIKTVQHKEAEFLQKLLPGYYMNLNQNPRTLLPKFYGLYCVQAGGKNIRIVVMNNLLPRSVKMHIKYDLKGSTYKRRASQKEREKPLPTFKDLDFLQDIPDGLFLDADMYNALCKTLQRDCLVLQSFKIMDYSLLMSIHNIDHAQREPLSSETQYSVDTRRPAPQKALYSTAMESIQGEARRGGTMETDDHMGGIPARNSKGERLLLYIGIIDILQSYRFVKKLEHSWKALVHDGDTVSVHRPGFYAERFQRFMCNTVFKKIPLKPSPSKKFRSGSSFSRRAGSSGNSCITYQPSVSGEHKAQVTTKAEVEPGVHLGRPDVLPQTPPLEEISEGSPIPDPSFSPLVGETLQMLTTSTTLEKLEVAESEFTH

[10] = target: Cyclin-dependent kinase 13/Cyclin-K (Homo sapiens) (UniProt Q14004+O75909); experiment: Inhibition of recombinant full length human CDK13/cyclinK assessed as residual activity at 10 uM using RSRSRSRSRSRSRSR as substrate measured after 120 mins in presence of [gamma33P]ATP by scintillation counting method; assay type: protein-complex assay
[11] = target: LIM domain kinase 2 (Homo sapiens) (UniProt P53671); experiment: Inhibition of recombinant human LIMK2 assessed as residual activity at 10 uM by radiometric method
[12] = system: Proto-oncogene tyrosine-protein kinase receptor Ret (Homo sapiens), P07949 [V804M]; experiment: Inhibition of human Ret V804M mutant (658 to end residues) using […] as substrate measured after 40 mins in presence of [gamma33P]ATP by scintillation counting method; design: scale not given: the % may be the effect or the level left
[13] = system: Serine/threonine-protein kinase Chk2 (Homo sapiens), O96017 [I157T]; experiment: Inhibition of recombinant human CHK2 I157T mutant (5 to end residues) assessed as residual activity at 10 uM using KKKVSRSGLYRSPSMPENLNRPR as substrate measured after 40 mins in presence of [gamma33P]ATP by scintillation counting method
Serine/threonine-protein kinase Chk2 (Homo sapiens), O96017 [I157T], sequence (O96017 whole entry I157T, the tested form may be a part, canonical isoform): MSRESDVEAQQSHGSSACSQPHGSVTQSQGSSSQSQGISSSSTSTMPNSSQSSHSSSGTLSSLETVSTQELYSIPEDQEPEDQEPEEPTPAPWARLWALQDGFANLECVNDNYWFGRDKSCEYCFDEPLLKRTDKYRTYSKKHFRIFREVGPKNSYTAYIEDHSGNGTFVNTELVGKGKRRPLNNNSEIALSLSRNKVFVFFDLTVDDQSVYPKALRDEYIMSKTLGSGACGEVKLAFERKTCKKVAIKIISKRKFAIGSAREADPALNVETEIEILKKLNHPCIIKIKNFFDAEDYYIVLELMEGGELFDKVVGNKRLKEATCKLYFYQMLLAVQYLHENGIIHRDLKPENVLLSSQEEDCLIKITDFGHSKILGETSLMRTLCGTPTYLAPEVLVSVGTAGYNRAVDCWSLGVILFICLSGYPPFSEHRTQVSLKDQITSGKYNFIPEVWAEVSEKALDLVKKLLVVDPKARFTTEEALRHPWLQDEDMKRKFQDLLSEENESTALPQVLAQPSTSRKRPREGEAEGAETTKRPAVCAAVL

[14] = system: Casein kinase I isoform gamma-3 (Homo sapiens), Q9Y6M4 [UNDEFINED MUTATION]; experiment: Inhibition of recombinant human CK1gamma3 K91E/R174G/E302D mutant (1 to 330 residues) assessed as residual activity at 10 uM using KRRRALS(p)VASLPGL as substrate measured after 40 mins in presence of [gamma33P]ATP by scintillation counting method
Casein kinase I isoform gamma-3 (Homo sapiens), Q9Y6M4 [UNDEFINED MUTATION], sequence (Q9Y6M4 whole entry, looked up, stated change not applied, the tested form may be a part, canonical isoform): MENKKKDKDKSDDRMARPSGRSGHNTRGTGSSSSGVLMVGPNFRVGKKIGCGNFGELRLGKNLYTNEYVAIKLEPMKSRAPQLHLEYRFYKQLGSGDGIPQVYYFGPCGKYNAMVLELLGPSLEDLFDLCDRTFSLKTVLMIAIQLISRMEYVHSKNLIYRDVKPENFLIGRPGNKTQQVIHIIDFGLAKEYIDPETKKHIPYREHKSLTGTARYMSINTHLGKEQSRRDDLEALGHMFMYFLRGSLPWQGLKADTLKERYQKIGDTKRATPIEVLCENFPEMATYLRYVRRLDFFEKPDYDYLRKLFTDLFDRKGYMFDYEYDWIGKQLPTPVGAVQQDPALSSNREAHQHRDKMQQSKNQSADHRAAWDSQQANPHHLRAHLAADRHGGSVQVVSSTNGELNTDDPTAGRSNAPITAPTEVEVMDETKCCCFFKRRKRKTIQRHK

[15] = target: Mitogen-activated protein kinase 1 (Homo sapiens) (UniProt P28482); experiment: Inhibition of recombinant full-length human MAPK1 assessed as residual activity at 10 uM using myelin basic protein as substrate measured after 40 mins in presence of [gamma33P]ATP by scintillation counting method
Mitogen-activated protein kinase 1 (Homo sapiens), sequence (P28482 whole entry): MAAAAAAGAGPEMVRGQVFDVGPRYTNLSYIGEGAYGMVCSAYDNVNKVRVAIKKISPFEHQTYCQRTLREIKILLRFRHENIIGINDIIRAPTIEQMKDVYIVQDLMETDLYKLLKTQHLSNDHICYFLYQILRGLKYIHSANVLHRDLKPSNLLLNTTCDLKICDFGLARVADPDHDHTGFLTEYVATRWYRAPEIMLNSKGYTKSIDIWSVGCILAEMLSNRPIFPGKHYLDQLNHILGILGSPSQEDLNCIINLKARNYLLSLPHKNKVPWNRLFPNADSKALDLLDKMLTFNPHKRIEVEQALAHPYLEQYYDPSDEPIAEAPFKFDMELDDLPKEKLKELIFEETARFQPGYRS

[16] = target: Cyclin-dependent kinase 14/Cyclin-Y (Homo sapiens) (UniProt O94921+Q8ND76); experiment: Inhibition of human CDK14/cyclinY assessed as residual activity at 10 uM by radiometric method; assay type: protein-complex assay
[17] = system: Receptor tyrosine-protein kinase erbB-2 (Homo sapiens), P04626 [G778D]; experiment: Inhibition of recombinant human ErbB2 G778D mutant (676 to end residues) assessed as residual activity at 10 uM using poly (Glu, Tyr) 4:1 as substrate measured after 40 mins in presence of [gamma33P]ATP by scintillation counting method
[18] = system: Serine/threonine-protein kinase Chk2 (Homo sapiens), O96017 [R145W]; experiment: Inhibition of recombinant human CHK2 R145W mutant (5 to end residues) assessed as residual activity at 10 uM using KKKVSRSGLYRSPSMPENLNRPR as substrate measured after 40 mins in presence of [gamma33P]ATP by scintillation counting method
Serine/threonine-protein kinase Chk2 (Homo sapiens), O96017 [R145W], sequence (O96017 whole entry R145W): as the sequence (O96017 whole entry I157T, the tested form may be a part, canonical isoform) above, with R145W, T157I counted along it

Homo sapiens = species: Homo sapiens; experiment: Inhibition of human activated Tec F514V mutant (174 to end residues) using EFPIYDFLPAKKK as substrate measured after 40 mins in presence of [gamma33P]ATP by scintillation counting method; design: scale not given: the % may be the effect or the level left
[19] = target: TRAF2 and NCK-interacting protein kinase (Homo sapiens) (UniProt Q9UKE5); experiment: Inhibition of human TNIK (1 to 367 residues) using RLGRDKYKTLRQIRQ as substrate measured after 40 mins in presence of [gamma33P]ATP by scintillation counting method; design: scale not given: the % may be the effect or the level left
[20] = target: Protein kinase C beta type (Homo sapiens) (UniProt P05771); experiment: Inhibition of recombinant human PKCbeta1 (2 to end residues) assessed as residual activity at 10 uM using histone H1 as substrate measured after 40 mins in presence of [gamma33P]ATP by scintillation counting method
[21] = system: RAC-gamma serine/threonine-protein kinase (Homo sapiens), Q9Y243 [S472D]; experiment: Inhibition of recombinant full-length human PKBgamma S472D mutant (117 to end residues) assessed as residual activity at 10 uM using GRPRTSSFAEGKK as substrate measured after 40 mins in presence of [gamma33P]ATP by scintillation counting method
SW-620 [22] = experiment: Cell cycle arrest in human SW620 cells assessed as up regulation of CyclinB1 expression up to 150 nM after 24 hrs by Western blot analysis; assay type: functional, cell-based
[23] = target: Receptor-type tyrosine-protein kinase FLT3 (Homo sapiens) (UniProt P36888); experiment: Inhibition of recombinant human Flt3 (564 to end residues) assessed as residual activity at 10 uM using EAIYAAPFAKKK as substrate measured after 40 mins in presence of [gamma33P]ATP by scintillation counting method

For `Cc1cc(C)c(CNc2nc(Cl)nc3c2ncn3C2CCCC2)c(=O)[nH]1`, the Activity [1] was 97%, the Activity (SW-620 [2]) was 9.24% and the Activity [3] was 108%. The Activity [4] was 105%, the Activity [5] was 106% and the Activity [6] was 100%. For the same molecule, the Activity [7] was 103%, the Activity [8] was 102% and the Activity [9] was 100%. The Activity [10] was 97%, the Activity [11] was 106% and the Activity [12] was 106%. It also gave an Activity [13] of 103%, an Activity [14] of 106% and an Activity [15] of 97.5%. The Activity [16] was 96.5%, the Activity [17] was 109% and the Activity [18] was 103%. It also gave an Activity (Homo sapiens) of 96.5%, an Activity [19] of 108% and an Activity [20] of 96%. For the same molecule, the Activity [21] was 91%, the Activity (SW-620 [22]) was “Active” and the Activity [23] was 130%.
